Legend:
Format in all cases: cell-based
[1] = biological target: T1, human VPAC2 receptor (Homo sapiens, UniProt P41587); experiment: cAMP stimulation in CHO cells expressing VPAC2; details: for Emax: CHO; for Receptor selectivity ratio VPAC2/PAC1 / Receptor selectivity ratio VPAC2/VPAC1: ratio of cAMP EC50 values
T1 construct: expressed in transfected cells; host or cells: CHO cells (G418 selection)
T1 sequence (P41587 24-438): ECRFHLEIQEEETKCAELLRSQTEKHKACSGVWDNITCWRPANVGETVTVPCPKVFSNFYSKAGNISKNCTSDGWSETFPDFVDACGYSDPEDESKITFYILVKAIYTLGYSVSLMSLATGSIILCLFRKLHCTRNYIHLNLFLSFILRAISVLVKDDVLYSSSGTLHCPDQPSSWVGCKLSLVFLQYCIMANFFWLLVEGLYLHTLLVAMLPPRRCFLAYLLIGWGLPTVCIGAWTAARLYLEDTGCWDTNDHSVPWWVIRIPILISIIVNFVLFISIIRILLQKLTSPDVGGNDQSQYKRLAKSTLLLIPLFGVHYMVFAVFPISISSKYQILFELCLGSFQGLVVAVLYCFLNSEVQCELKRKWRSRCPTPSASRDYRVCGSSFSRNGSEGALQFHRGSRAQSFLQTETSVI
Experimental: Briefly, human PAC1, VPAC1, and VPAC2 receptors expressed in CHO cells were used for all experiments. Cells were grown in 50:50 DMEM-F12 medium with 10% heat-inactivated fetal bovine serum, 1X penicillin-streptomycin supplement, and 500 μg/ml G418 (neomycin) to maintain selection (all from ThermoFisher) at 37°C with 5% CO2 atmosphere. For the cAMP assay, cells were seeded at 20,000 cells/well in a 96 well plate, recovered overnight, then serum starved for 4 h. The cells were then incubated with 500 μM IBMX for 20 min, followed by agonist concentration curves in 500 μM IBMX media for 10 min. The reaction was terminated, boiled, then collected, followed by competition with 7 μg of bovine protein kinase A (Sigma-Aldrich) and ∼1 pmol of ^3H-cAMP (PerkinElmer). The assay was incubated at room temp for 1 h, then collected onto GF/B filter plates and the data read using a MicroBeta2 scintillation counter (PerkinElmer).

[2] = biological target: T2, human PAC1 receptor (Homo sapiens, UniProt P41586); experiment: cAMP stimulation in CHO cells expressing PAC1; details: for Emax: CHO
T2 construct: expressed in transfected cells; host or cells: CHO cells (G418 selection)
T2 sequence (P41586 21-468): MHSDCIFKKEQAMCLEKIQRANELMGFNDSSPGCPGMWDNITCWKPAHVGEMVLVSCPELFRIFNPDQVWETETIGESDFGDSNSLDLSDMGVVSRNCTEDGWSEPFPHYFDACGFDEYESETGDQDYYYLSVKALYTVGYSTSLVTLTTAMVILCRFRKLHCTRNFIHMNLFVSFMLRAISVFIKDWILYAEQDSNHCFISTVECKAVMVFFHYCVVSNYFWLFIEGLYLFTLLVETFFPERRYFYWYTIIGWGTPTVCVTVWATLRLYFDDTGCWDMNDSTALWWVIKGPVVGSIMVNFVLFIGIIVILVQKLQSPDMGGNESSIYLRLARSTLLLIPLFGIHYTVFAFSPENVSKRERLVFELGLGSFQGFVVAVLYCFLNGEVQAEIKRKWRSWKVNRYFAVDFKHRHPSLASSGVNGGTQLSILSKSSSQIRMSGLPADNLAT
Procedure, shortened: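 Serum-starved CHO cells expressing human receptors were pre-treated 20 min with 500 μM IBMX, then exposed to agonist concentration curves for 10 min in 500 μM IBMX. cAMP quantified by competition with bovine PKA and ^3H-cAMP (1 h, room temperature), scintillation read.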

[3] = biological target: T3, human VPAC1 receptor (Homo sapiens, UniProt P32241); experiment: cAMP stimulation in CHO cells expressing VPAC1; details: for Emax: CHO, read-out: VPAC1 Emax; for EC50: read-out: VPAC1 EC50; for Receptor selectivity ratio VPAC1/PAC1: ratio of cAMP EC50 values
T3 construct: expressed in transfected cells; host or cells: CHO cells (G418 selection)
T3 sequence (P32241 31-457): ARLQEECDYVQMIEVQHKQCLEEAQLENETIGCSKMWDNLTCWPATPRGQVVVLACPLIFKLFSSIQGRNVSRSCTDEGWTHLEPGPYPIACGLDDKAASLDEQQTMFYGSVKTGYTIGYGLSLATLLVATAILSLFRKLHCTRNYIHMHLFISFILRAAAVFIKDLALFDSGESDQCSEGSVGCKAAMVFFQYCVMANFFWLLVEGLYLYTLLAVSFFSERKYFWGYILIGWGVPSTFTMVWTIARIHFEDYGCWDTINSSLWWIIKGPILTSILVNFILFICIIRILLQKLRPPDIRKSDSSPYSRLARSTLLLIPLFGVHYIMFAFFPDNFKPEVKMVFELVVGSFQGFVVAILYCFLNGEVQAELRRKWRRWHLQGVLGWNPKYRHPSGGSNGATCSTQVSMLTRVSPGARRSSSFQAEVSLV

| Structure (SMILES) | EC50 [1] [nM] | Emax [1] [%] | EC50 [2] [nM] | Emax [2] [%] | Emax [3] [%] | EC50 [3] [nM] | Receptor selectivity ratio VPAC2/PAC1 [1] | Receptor selectivity ratio VPAC2/VPAC1 [1] | Selectivity for PAC1 over VPAC1 ([2]; from cAMP EC50 values) [fold] | Selectivity for PAC1 over VPAC2 ([2]; from cAMP EC50 values) [fold] | Receptor selectivity ratio VPAC1/PAC1 [3] | Selectivity for VPAC1 over PAC1 ([3]; from cAMP EC50 values) [fold] |
| --- | --- | --- | --- | --- | --- | --- | --- | --- | --- | --- | --- | --- |
| CCC[C@H](NC(=O)[C@H](CCC(N)=O)NC(=O)[C@H](CCCCN)NC(=O)[C@H](CCCNC(=N)N)NC(=O)[C@H](Cc1ccc(O)cc1)NC(=O)[C@H](CCCNC(=N)N)NC(=O)[C@H](CO)NC(=O)[C@H](Cc1ccc(O)cc1)NC(=O)[C@H](CO)NC(=O)[C@H](CC(=O)O)NC(=O)[C@@H](NC(=O)[C@H](Cc1ccccc1)NC(=O)[C@@H](CCC)NC(=O)CNC(=O)[C@H](CC(=O)O)NC(=O)[C@@H](CO)NC(=O)[C@H](Cc1c[nH]cn1)NC(C)=O)[C@@H](C)O)C(=O)N[C@@H](C)C(=O)N[C@H](C(=O)N[C@@H](CCCCN)C(=O)N[C@@H](CCCCN)C(=O)N[C@@H](Cc1ccc(O)cc1)C(=O)N[C@@H](CC(C)C)C(=O)N[C@@H](C)C(=O)N[C@@H](C)C(=O)N[C@H](C(=O)N[C@@H](CC(C)C)C(=O)N[C@@H](CO[C@@H]1O[C@H](CO)[C@@H](O)[C@H](O)[C@H]1O)C(N)=O)C(C)C)C(C)C [Ac-CRA 3020] | > 2500 | 71 | > 2500 | 61 | 36 | 244 | – | – | – | – | – | – |
| CCC[C@H](NC(=O)[C@H](CCC(N)=O)NC(=O)[C@H](CCCCN)NC(=O)[C@H](CCCNC(=N)N)NC(=O)[C@H](Cc1ccc(O)cc1)NC(=O)[C@H](CCCNC(=N)N)NC(=O)[C@H](CO)NC(=O)[C@H](Cc1ccc(O)cc1)NC(=O)[C@H](CO)NC(=O)[C@H](CC(=O)O)NC(=O)[C@@H](NC(=O)[C@H](Cc1ccccc1)NC(=O)[C@@H](NC(=O)CN(C)C(=O)[C@H](CC(=O)O)NC(=O)[C@@H](CO)NC(=O)[C@@H](N)Cc1c[nH]cn1)[C@@H](C)CC)[C@@H](C)O)C(=O)N[C@@H](C)C(=O)N[C@H](C(=O)N[C@@H](CCCCN)C(=O)N[C@@H](CCCCN)C(=O)N[C@@H](Cc1ccc(O)cc1)C(=O)N[C@@H](CC(C)C)C(=O)N[C@@H](C)C(=O)N[C@@H](C)C(=O)N[C@H](C(=O)N[C@@H](CC(C)C)C(=O)N[C@@H](CO[C@@H]1O[C@H](CO)[C@@H](O)[C@H](O)[C@H]1O)C(N)=O)C(C)C)C(C)C [CRA 3007] | 706 | 70 | 30 | 88 | 111 | 165 | 23.53 | 4.28 | ~5 | ~24 | 5.50 | – |
| CCCC[C@@H](NC(=O)CNC(=O)[C@H](CC(=O)O)NC(=O)[C@@H](CO)NC(=O)[C@H](Cc1c[nH]cn1)NC(C)=O)C(=O)N[C@@H](Cc1ccccc1)C(=O)N[C@H](C(=O)N[C@@H](CC(=O)O)C(=O)N[C@@H](CO)C(=O)N[C@@H](Cc1ccc(O)cc1)C(=O)N[C@@H](CO)C(=O)N[C@@H](CCCNC(=N)N)C(=O)N[C@@H](Cc1ccc(O)cc1)C(=O)N[C@@H](CCCNC(=N)N)C(=O)N[C@@H](CCCCN)C(=O)N[C@@H](CCC(N)=O)C(=O)N[C@@H](CCC)C(=O)N[C@@H](C)C(=O)N[C@H](C(=O)N[C@@H](CCCCN)C(=O)N[C@@H](CCCCN)C(=O)N[C@@H](Cc1ccc(O)cc1)C(=O)N[C@@H](CC(C)C)C(=O)N[C@@H](C)C(=O)N[C@@H](C)C(=O)N[C@H](C(=O)N[C@@H](CC(C)C)C(=O)N[C@@H](CO[C@@H]1O[C@H](CO)[C@@H](O)[C@H](O)[C@H]1O)C(N)=O)C(C)C)C(C)C)[C@@H](C)O [Ac-CRA 3019] | > 2500 | 62 | 1640 | 58 | 18 | – | – | – | – | – | – | – |
| CCC[C@H](NC(=O)[C@H](CCC(N)=O)NC(=O)[C@H](CCCCN)NC(=O)[C@H](CCCNC(=N)N)NC(=O)[C@H](Cc1ccc(O)cc1)NC(=O)[C@H](CCCNC(=N)N)NC(=O)[C@H](CO)NC(=O)[C@H](Cc1ccc(O)cc1)NC(=O)[C@H](CO)NC(=O)[C@H](CC(=O)O)NC(=O)[C@@H](NC(=O)[C@H](Cc1ccccc1)NC(=O)[C@H](C)NC(=O)CNC(=O)[C@H](CC(=O)O)NC(=O)[C@@H](CO)NC(=O)[C@@H](N)Cc1c[nH]cn1)[C@@H](C)O)C(=O)N[C@@H](C)C(=O)N[C@H](C(=O)N[C@@H](CCCCN)C(=O)N[C@@H](CCCCN)C(=O)N[C@@H](Cc1ccc(O)cc1)C(=O)N[C@@H](CC(C)C)C(=O)N[C@@H](C)C(=O)N[C@@H](C)C(=O)N[C@H](C(=O)N[C@@H](CC(C)C)C(=O)N[C@@H](CO[C@@H]1O[C@H](CO)[C@@H](O)[C@H](O)[C@H]1O)C(N)=O)C(C)C)C(C)C [CRA 3014] | 2650 | 122 | 205 | 79 | 122 | 132 | 12.95 | 20.11 | – | – | 0.64 | – |

Now from value to molecule:

| EC50 [1] [nM] | Emax [1] [%] | EC50 [2] [nM] | Emax [2] [%] | Emax [3] [%] | EC50 [3] [nM] | Receptor selectivity ratio VPAC2/PAC1 [1] | Receptor selectivity ratio VPAC2/VPAC1 [1] | Selectivity for PAC1 over VPAC1 ([2]; from cAMP EC50 values) [fold] | Selectivity for PAC1 over VPAC2 ([2]; from cAMP EC50 values) [fold] | Receptor selectivity ratio VPAC1/PAC1 [3] | Selectivity for VPAC1 over PAC1 ([3]; from cAMP EC50 values) [fold] | Structure (SMILES) |
| --- | --- | --- | --- | --- | --- | --- | --- | --- | --- | --- | --- | --- |
| 223 | 99 | 784 | 68 | 91 | 34.2 | 0.28 | 6.52 | – | – | 0.04 | ~23 | CCC[C@H](NC(=O)[C@H](CCC(N)=O)NC(=O)[C@H](CCCCN)NC(=O)[C@H](CCCNC(=N)N)NC(=O)[C@H](Cc1ccc(O)cc1)NC(=O)[C@H](CCCNC(=N)N)NC(=O)[C@H](CO)NC(=O)[C@H](Cc1ccc(O)cc1)NC(=O)[C@H](CO)NC(=O)[C@H](CC(=O)O)NC(=O)[C@@H](NC(=O)[C@H](Cc1ccccc1)NC(=O)[C@@H](NC(=O)C(C)(C)NC(=O)[C@H](CC(=O)O)NC(=O)[C@@H](CO)NC(=O)[C@@H](N)Cc1c[nH]cn1)[C@@H](C)CC)[C@@H](C)O)C(=O)N[C@@H](C)C(=O)N[C@H](C(=O)N[C@@H](CCCCN)C(=O)N[C@@H](CCCCN)C(=O)N[C@@H](Cc1ccc(O)cc1)C(=O)N[C@@H](CC(C)C)C(=O)N[C@@H](C)C(=O)N[C@@H](C)C(=O)N[C@H](C(=O)N[C@@H](CC(C)C)C(=O)N[C@@H](CO[C@@H]1O[C@H](CO)[C@@H](O)[C@H](O)[C@H]1O)C(N)=O)C(C)C)C(C)C [CRA3011] |
| 650 | 88 | 88.9 | 74 | 113 | 20.9 | 7.31 | 31.10 | – | – | 0.24 | – | CCC[C@H](NC(=O)[C@H](CCC(N)=O)NC(=O)[C@H](CCCCN)NC(=O)[C@H](CCCNC(=N)N)NC(=O)[C@H](Cc1ccc(O)cc1)NC(=O)[C@H](CCCNC(=N)N)NC(=O)[C@H](CO)NC(=O)[C@H](Cc1ccc(O)cc1)NC(=O)[C@H](CO)NC(=O)[C@H](CC(=O)O)NC(=O)[C@@H](NC(=O)[C@H](Cc1ccccc1)NC(=O)[C@H](CC(C)C)NC(=O)CNC(=O)[C@H](CC(=O)O)NC(=O)[C@@H](CO)NC(=O)[C@@H](N)Cc1c[nH]cn1)[C@@H](C)O)C(=O)N[C@@H](C)C(=O)N[C@H](C(=O)N[C@@H](CCCCN)C(=O)N[C@@H](CCCCN)C(=O)N[C@@H](Cc1ccc(O)cc1)C(=O)N[C@@H](CC(C)C)C(=O)N[C@@H](C)C(=O)N[C@@H](C)C(=O)N[C@H](C(=O)N[C@@H](CC(C)C)C(=O)N[C@@H](CO[C@@H]1O[C@H](CO)[C@@H](O)[C@H](O)[C@H]1O)C(N)=O)C(C)C)C(C)C [CRA3013] |
